Measured values taken from paper PMC8066339, “Optimization of 2-Acylaminocycloalkylthiophene Derivatives for Activity against Staphylococcus aureus RnpA” (Antibiotics, 2021).

Assays:
[1] = system: Human liver epithelial cells (HEP G2); assay: MTT cytotoxicity testing; conditions: for HEP G2 toxicity against 70% viability cut-off (in words): concentrations lower than 50 µM
Method: (§1) For the scaffold to have translational significance, it must be non-toxic to human cells. Accordingly, an initial assessment of toxicity was performed using human liver epithelial (HEP G2) cells via a 3-(4,5-dimethylthiazol-2-yl)-2,5-diphenyltetrazolium bromide (MTT) assay in the presence of up to 400 µM of each analog. […] Viability of 70% was used as the cut-off criteria for toxicity (Figure 4, dashed line), according to ISO guidelines, as described in Materials and Methods.
(§2) Human liver epithelial cells (HEP G2) were cultured in Dulbecco’s Modified Eagle Medium (DMEM; Fisher Scientific, Hampton, NH) supplemented with 10% heat inactivated fetal bovine serum (FBS; Corning Life Sciences) and 1% penicillin/streptomycin (Thermofisher Scientific). Cells were incubated at 37 °C with 5% CO2 in Nunc (Roskilde, Denmark) tissue culture flasks. Cells were grown in monolayers until exceeding 70% confluency, removed with 0.25% trypsin (Fisher Scientific), resuspended in fresh medium, and used to seed approximately 2.5 × 10^5 cells/mL into each well of a 96 well tissue culture microplate (Nunc) containing 200 µL of fresh medium. Cytotoxicity testing was conducted according to the guidelines of the International Organization for Standardization (ISO) 10993-5:2009. After 24 h of incubation, the cell media was removed, and adherent cells were washed with 1× phosphate buffered saline (PBS). Cell media was supplemented with 5% per volume of compound at final concentrations from 12.5 µM to 400 µM and incubated 20–24 h at 37 °C with 5% CO2. After incubation, medium supplemented with compound was removed from the wells and replaced with 100 µL of fresh culture medium. Then, 10 µL of 12 mM (3-(4,5-dimethylthiazol-2-yl)-2,5-diphenyltetrazolium bromide (MTT) stock reagent (CyQUANT MTT cell proliferation kit; Thermofisher Scientific) was added to each well. After labeling the cells with the MTT reagent, all but 25 µL of medium was removed from the wells, and 50 µL of DMSO was added to each well and mixed thoroughly and cells were incubated at 37 °C with 5% CO2 for 10 min. After incubation, wells were mixed again and using a SPECTRAmax5 microplate reader, absorbance was read at 540 nm. Cells were treated with 125 µg/mL mitomycin C (Fisher Scientific) to serve as a positive control and 2% DMSO as a negative control. […] All compounds were tested in two independent experiments in triplicate and cell viability was expressed as a percent of the negative control.

[2] = system: S. aureus clinical isolate USA300; assay: Murine corneal infection (keratitis) model; format: in vivo, Staphylococcus aureus; conditions: BALB/c mice, 50 µM topical 5 µL every 6 h for 48 h; not statistically different (t-test)
Method: Corneal infections were induced by inoculating corneal scratches with S. aureus, eyes were treated with RNP0012 6 h later and every 6 h thereafter for 48 h and bacterial burden was enumerated.
In vivo efficacy studies utilizing a murine model of corneal S. aureus infection were performed as previously described. Female BALB/c mice four to six weeks of age were acquired from Charles River ([…], MA, USA) and housed according to the approved University of Rochester Medical Center Council on Animal Research (UCAR) protocol. S. aureus clinical isolate USA300 was grown overnight on both MH agar and MH broth at 37 °C. Broth cultures were centrifuged at 2000× g for 10 min at 4 °C and the pellet was resuspended in 1× sterile PBS in a volume equivalent to the starting volume. The mice were anesthetized with 100 mg kg^−1 ketamine (Par Pharmaceutica; Chestnut Ridge, NY, USA) and 10 mg kg^−1 xylazine (Akorn, Inc.; Lake Forest, IL, USA) and 0.5% proparacaine (Akorn, Inc.) was applied to the right eye of each mouse. Excess proparacaine was blotted from the ocular surface. Using a 27-gauge needle, inoculated with a single colony of S. aureus USA300, three 2 mm scratches were made across the right cornea. […] The animals were euthanized after 48 h and whole eyes were excised, homogenized, and plated to quantitate viable S. aureus colonies present. […]

[3] = MTT cytotoxicity testing; conditions: human, HEP G2 cells (human liver epithelial cells)
Method: as §1, §2

| Compound | HEP G2 toxicity against 70% viability cut-off (in words) [1] | CFU reduction in comparison to vehicle treated animals [2] | viability at 50 µM [3] | Therapeutic index ([1]; human) | Fold of the 50 µM cytotoxicity dose above the MIC against S. aureus ([1]; human, 50 µM) |
| --- | --- | --- | --- | --- | --- |
| Cc1cccc(NC(=O)c2c(NC(=O)C(F)(F)F)sc3c2CCCCC3)c1 [RNP0010] | did not exhibit toxicity that was beyond the 70% cut-off criteria | – | – | – | – |
| O=C(Nc1cccc(F)c1)c1c(NC(=O)C(F)(F)F)sc2c1CCCCC2 [RNP0008] | did not exhibit toxicity that was beyond the 70% cut-off criteria | – | – | – | – |
| O=C(Nc1ccc(C(F)(F)F)cc1)c1c(NC(=O)C(F)(F)F)sc2c1CCCCC2 [RNP0012] | – | 1.2 log CFU | 68% | ~ 260 | 263 fold |
| O=C(Nc1ccc(F)cc1)c1c(NC(=O)C(F)(F)F)sc2c1CCCCC2 [RNP0009] | did not exhibit toxicity that was beyond the 70% cut-off criteria | – | – | – | – |
